From patent publication US20260124192A1, “COMPOUNDS, COMPOSITIONS, AND METHODS OF TREATING RNA VIRAL INFECTIONS” (priority 2024, published 2026)
Where two headings read alike, the source gives them in different places.

Columns and labels:
[1] = tested on: Vero 76 cells; conditions: with CPE assays (SARS-CoV-2 WA1, Delta), not converted for FBS
[2] = tested on: SARS-CoV-2 Omicron (B.1.1.529); assay: SARS-CoV-2 IF assay, HeLa-ACE2 (Method 1); type: cell-based; conditions: Severe acute respiratory syndrome coronavirus 2, HeLa-ACE2, SARS-CoV-2 Omicron (B.1.1.529), 2% FBS
[3] = tested on: Influenza B Yamagata/Brisbane; assay: Influenza B CPE assay, MDCK; type: cell-based; conditions: Influenza B virus, albumin content N/A
Description: (§1) The antiviral assays were cell line based and consisted in transfecting each of the viruses tested in a compatible cell line. Upon infection and after drug treatment, viral survival and cell toxicity were reported from the readout of three different assays: cytopathic effect (CPE), viral yield reduction (VYR), or immunofluorescence (IF).

[4] = tested on: Influenza B Victoria/Florida; assay: Influenza B CPE assay, MDCK; type: cell-based; conditions: Influenza B virus, albumin content N/A
Description: as §1

Cc1c(-c2ccc(O)cc2)n(Cc2ccc(OCCN3CCCCC3)cc2)c2ccc(O)cc12 [Pipendoxifene]
CC50 [1]: 3.2 µM | EC50 [2]: 0.75 µM | EC50 ([3]; read-out: Corrected EC50): 6.7 µM | EC50 ([3]; read-out: EC50): 6.7 µM | EC50 ([4]; read-out: Corrected EC50): 4.1 µM | EC50 ([4]; read-out: EC50): 4.1 µM
